In PMC9635925, “Biological screening of a unique drug library targeting MRGPRX2” (Frontiers in Immunology, 2022):
Positions count from the first letter of the chain named. Counter-ions that a name gives are not always drawn.

Experiments:
[1] = target: T1, MRGPRX2-MUT (MRGPRX2 N62S mutation) (Homo sapiens, UniProt Q96LB1, N62S); assay: Primary HTS, Ca2+ mobilization (fluorescence ratio, B-score) in HEK293-Gα15 cells stably expressing the MRGPRX2 N62S mutation; assay type: cell-based; conditions: for B-scores (MUT): 10 μM compound, MRGPRX2-MUT (N62S) cells; for Change of B-scores (%): 10 μM
T1 construct: expressed in transfected cells
T1 sequence (Q96LB1 1-330 N62S): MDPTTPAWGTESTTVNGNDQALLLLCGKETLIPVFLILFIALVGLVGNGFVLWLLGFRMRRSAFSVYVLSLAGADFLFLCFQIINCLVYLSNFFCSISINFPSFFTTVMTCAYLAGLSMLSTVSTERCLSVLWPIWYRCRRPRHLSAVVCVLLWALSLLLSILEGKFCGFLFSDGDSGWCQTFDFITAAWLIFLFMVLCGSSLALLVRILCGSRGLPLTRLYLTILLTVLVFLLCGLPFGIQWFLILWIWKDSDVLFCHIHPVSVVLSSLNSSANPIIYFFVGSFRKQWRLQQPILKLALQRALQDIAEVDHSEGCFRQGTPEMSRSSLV
Experimental: (§1) We performed an experimental HTS on the Johns Hopkins Drug Library, which includes 1,811 (57%) FDA-approved drugs among 3,456 total compounds (28% of all known drugs worldwide) ([15]). We performed the HTS at the Johns Hopkins University ChemBioCORE Facility and employed HEK293-Gα15 cell lines that stably expressed MRGPRX2 protein.
(§2) We utilized 10 μM compounds (each compound was tested in triplicate) and calculated the compound effect using the signal-to-background fluorescence ratio (see Supplementary Methods).
(§3) In the HTS, we determined MRGPRX2 activation by a Ca^2+ mobilization assay that recorded a fluorescence change by utilizing a Functional Drug Screening System (FDSS 6000; Hamamatsu); we evaluated the compound effect using the calculated fluorescence ratio. We further applied the B-score normalization, which provided robust corrections for variation in fluorescence ratio ([22]).
(§4) We performed an experimental high-throughput screening (HTS) on the Johns Hopkins Drug Library (JHDL), which includes 1,811 (57%) FDA-approved drugs among 3,456 total compounds (28% of all known drugs worldwide). The remaining compounds in JHDL are catalogued in one or more of the resources below: British Approved Names (BAN); Dénominations Communes Françaises (DCF); International Nonproprietary Names (INN); Japanese Adopted Names (JAN); MI (Merck Index); National Formulary drug name (NF); and United States Accepted Names (USAN). The JHU drug library is stocked in 96 well plates at 10 mM in 100% DMSO and stored at -80 °C. We used a final concentration of 10 uM for each compound and DMSO concentration of 0.1% (tested in triplicate). […] We evaluated compound effect using the calculated fluorescence ratio. We further calculated B-scores, which are a relative potency score similar to Z scores in that they are the ratio of an adjusted raw value in the numerator to a measure of variability in the denominator.

[2] = target: T2, MRGPRX2-WT (wild-type MRGPRX2 receptor) (Homo sapiens, UniProt Q96LB1); assay: Primary HTS, Ca2+ mobilization (fluorescence ratio, B-score) in HEK293-Gα15 cells stably expressing wild-type MRGPRX2; assay type: cell-based; conditions: 10 μM compound
T2 construct: expressed in transfected cells
T2 sequence (Q96LB1 1-330): T1 sequence (Q96LB1 1-330 N62S) with S62N
Experimental: as §1, §2, §3, §4

[3] = MRGPRX2-MUT versus MRGPRX2-WT cells, Supplementary Table 2
[4] = MRGPRX2-MUT in comparison to MRGPRX2-WT cells, Supplementary Table 1
[5] = MRGPRX2-MUT in comparison to MRGPRX2-WT cells, Table 1

| Compound | B-scores (MUT) ([1]; Supplementary Table 2) | Change of B-scores (%) [1, 3] | B-scores (WT) ([2]; Supplementary Table 2) | B-scores (MUT) ([1]; Supplementary Table 1) | B-scores (MUT) ([1]; Table 1) | Change of B-scores (%) [1, 4] | Change of B-scores (%) [1, 5] | B-scores (WT) ([2]; Supplementary Table 1) | B-scores (WT) ([2]; Table 1) |
| --- | --- | --- | --- | --- | --- | --- | --- | --- | --- |
| COc1ccc(CCN(C)CCCC(C#N)(c2ccc(OC)c(OC)c2)C(C)C)cc1OC (stereo not shown) [Verapamil Hydrochloride] | 1.41 | -85.46% | 9.68 | – | – | – | – | – | – |
| CN1CCN(CCCN2c3ccccc3Sc3ccc(C(F)(F)F)cc32)CC1 [Stelazine] | 1.08 | -86.07% | 7.75 | – | – | – | – | – | – |
| CN(C)CCOC(c1ccc(Cl)cc1)c1ccccn1 (stereo not shown) [Carbinoxamine Maleate] | 1.49 | -94.84% | – | 1.49 | 1.49 | -96.18% | -96.18% | 38.93 | 38.93 |
| CN(C)CCCN1c2ccccc2Sc2ccccc21 [Promazine Hydrochloride] | 8.13 | -65.37% | 23.47 | 8.13 | 8.13 | -65.37% | -65.37% | 23.47 | 23.47 |
| N=C(N)c1ccc(OCCCCCOc2ccc(C(=N)N)cc2)cc1 [Pentamidine Isethionate] | – | – | – | 0.43 | – | -98.84% | – | 37.48 | – |
| CN1[C@@H]2CC(OC(=O)[C@H](CO)c3ccccc3)C[C@H]1[C@@H]1O[C@@H]12.Cl (stereo partly shown) [Hyoscine hydrochloride] | 0.57 | -94.9% | 11.2 | – | – | – | – | – | – |
| CCCCC[C@H](O)/C=C/[C@H]1[C@H](O)CC(=O)[C@@H]1CCCCCCC(=O)O [Alprostadil] | – | – | – | 11.08 | – | -73.65% | – | 42.04 | – |
| COc1ccc(CCN(C)CCCC(C#N)(c2cc(OC)c(OC)c(OC)c2)C(C)C)cc1OC (stereo not shown) [Gallopamil] | 0.2 | -97.19% | 7.16 | – | – | – | – | – | – |
| Cl.NC1CCN(c2c(F)cc3c(=O)c(C(=O)O)cn(C4CC4)c3c2Cl)C1 (stereo not shown) [Clinafoxacin Hydrochloride] | – | – | – | 0.92 | 0.92 | -96.48% | -96.48% | 26.08 | 26.08 |
| Br.COc1ccc2c(c1)[C@]13CCCC[C@@H]1[C@H](C2)N(C)CC3.O [Dextromethorphan Hydrobromide Monohydrate] | – | – | – | 54.88 | – | 138.39% | – | 23.02 | – |
| COc1ccc(CN(CCN(C)C)c2ncccn2)cc1 [Thonzylamine Hydrochloride] | – | – | – | 1.69 | 1.69 | -94.91% | -94.91% | 33.23 | 33.23 |
| CCOC(=O)C1=C(COCCN)NC(C)=C(C(=O)OC)C1c1ccccc1Cl (stereo not shown) [Amlodipine Besylate] | – | – | – | 3.87 | – | -87.76% | – | 31.57 | – |
| CN1CCN(c2c(F)cc3c(=O)c(C(=O)O)cn4c3c2SCC4)CC1.Cl [Rufloxacin Hydrochloride] | – | – | – | – | -0.15 | -100.76% | -100.76% | 19.85 | 19.85 |
| CC(C)(C)NC[C@H](O)c1ccc(O)c(CO)c1 [Levalbuterol] | 1.63 | -86.62% | 12.18 | – | – | – | – | – | – |
| CC(C)(C)NCC(O)c1ccc(O)c(CO)c1 (stereo not shown) [Salbutamol] | 0.36 | -97.38% | 13.61 | – | – | – | – | – | – |
| CN1CC[C@@]23CCCC[C@@H]2[C@@H]1Cc1ccc(O)cc13 [Dextrorphan] | 68.33 | 113.94% | 31.94 | – | – | – | – | – | – |
| CC(=O)OCC[N+](C)(C)C [Acetylcholine] | 80.61 | 245.01% | 23.36 | 80.61 | – | 245.01% | – | 23.36 | – |
| CNCCCN1c2ccccc2CCc2ccccc21 [Desipramine] | 1.19 | -91.45% | 13.96 | – | – | – | – | – | – |
| COc1ccc2c3c1O[C@H]1C[C@@H](O)C=C[C@@]31CCN(C)C2 [Galantamine] | – | – | – | 1.25 | – | -96.90% | – | 40.50 | – |
| CC(=O)Oc1cc(C(C)C)c(OCCN(C)C)cc1C [Moxisylyte Hydrochloride] | – | – | – | 1.32 | – | -94.42% | – | 23.69 | – |
| CN1[C@@H]2CC[C@H]1C[C@@H](OC(c1ccccc1)c1ccccc1)C2 [Benztropine] | – | – | – | 1.35 | – | -93.68% | – | 21.42 | – |
| CC(C)(C)NCC(O)c1cc(O)cc(O)c1.CC(C)(C)NCC(O)c1cc(O)cc(O)c1.O=S(=O)(O)O (stereo not shown) [Terbutaline Hemisulfate] | 1.91 | -88.03% | 15.97 | – | – | – | – | – | – |
| C=C[C@@]1(C)CC(=O)[C@]2(O)[C@@]3(C)[C@@H](O)CCC(C)(C)[C@@H]3[C@H](O)[C@H](OC(C)=O)[C@@]2(C)O1 [Colforsin] | – | – | – | 0.76 | – | -96.40% | – | 21.10 | – |
| CNC[C@H](O)c1ccc(O)c(O)c1 [Epinephrine Bitartrate] | 11.72 | -54.24% | 25.6 | 11.72 | – | -54.24% | – | 25.60 | – |
| CN(C)CCCN1c2ccccc2Sc2ccc(C(F)(F)F)cc21 [Triflupromazine Hydrochloride] | 0.85 | -90.15% | 8.62 | – | – | – | – | – | – |
| CNC[C@H](O)c1ccc(O)c(O)c1 [Epinephrine] | 8.28 | -52.73% | 17.52 | – | – | – | – | – | – |
